According to patent publication US11078228B2, “Ectonucleotidase inhibitors and methods of use thereof” (Calithera Biosciences, Inc., priority 2018, dated 2021):

target: recombinant CD73 (Homo sapiens (Human), UniProt P21589); test: Assay 2: Inhibition of the CD73 enzyme in vitro (0.05 nM CD73, 1 hour 37° C., Malachite Green); type: biochemical; conditions: 0.05 nM CD73, 50 μM AMP, 1 hour at 37° C.
How it was run: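 Soluble recombinant CD73 reactions ran 1 hour at 37° C. Malachite Green was then added, and absorbance at 630 nm was read after 5 min at room temperature. Inorganic phosphate was quantified from a phosphate standard curve.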

recombinant CD73, sequence (P21589 27-547): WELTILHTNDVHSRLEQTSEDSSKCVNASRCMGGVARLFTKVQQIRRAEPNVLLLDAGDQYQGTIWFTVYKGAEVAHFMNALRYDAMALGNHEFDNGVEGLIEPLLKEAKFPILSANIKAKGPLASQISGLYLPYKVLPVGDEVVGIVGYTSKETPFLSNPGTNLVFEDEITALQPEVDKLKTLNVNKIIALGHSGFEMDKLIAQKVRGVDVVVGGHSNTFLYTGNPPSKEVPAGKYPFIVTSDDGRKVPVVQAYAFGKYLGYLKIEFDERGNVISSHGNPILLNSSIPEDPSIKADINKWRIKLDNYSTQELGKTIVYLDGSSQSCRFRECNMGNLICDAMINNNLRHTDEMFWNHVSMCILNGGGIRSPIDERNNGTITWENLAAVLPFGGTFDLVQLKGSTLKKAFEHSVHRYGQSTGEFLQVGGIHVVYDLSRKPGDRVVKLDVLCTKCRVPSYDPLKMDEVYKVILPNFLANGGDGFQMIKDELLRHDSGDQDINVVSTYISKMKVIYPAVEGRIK

| SMILES | IC50 |
| --- | --- |
| CC#C[C@@]1(O)[C@@H](COC(Cc2ccccc2)(C(=O)O)C(=O)O)O[C@@H](n2cnc3c(N)nc(Cl)nc32)[C@@H]1O [Compound 3, 2-(((2R,3S,4R,5R)-5-(6-amino-2-chloro-9H-purin-9-yl)-3,4-dihydroxy-3-(prop-1-yn-1-yl)tetrahydrofuran-2-yl)methoxy)-2-benzylmalonic acid] | 1 nM |
| C#C[C@@]1(O)[C@@H](COC(Cc2ccsc2)(C(=O)O)C(=O)O)O[C@@H](n2cnc3c(NC(C)C)nc(Cl)nc32)[C@@H]1O [Example 33, 2-(((2R,3S,4R,5R)-5-(2-chloro-6-(isopropylamino)-9H-purin-9-yl)-3-ethynyl-3,4-dihydroxytetrahydrofuran-2-yl)methoxy)-2-(thiophen-3-ylmethyl)malonic acid] | 2 nM |
| C#C[C@@]1(O)[C@@H](COC(Cc2ccccc2)(C(=O)O)C(=O)O)O[C@@H](n2cnc3c(NCC)nc(Cl)nc32)[C@@H]1O [Example 73, 2-benzyl-2-(((2R,3S,4R,5R)-5-(2-chloro-6-(ethylamino)-9H-purin-9-yl)-3-ethynyl-3,4-dihydroxytetrahydrofuran-2-yl)methoxy)malonic acid] | 1 nM |
| C#C[C@@]1(O)[C@@H](COC(Cc2ccccc2)(C(=O)O)C(=O)O)O[C@@H](n2cnc3c(N(CCO)CCO)nc(Cl)nc32)[C@@H]1O [Example 37, 2-benzyl-2-(((2R,3S,4R,5R)-5-(6-(bis(2-hydroxyethyl)amino)-2-chloro-9H-purin-9-yl)-3-ethynyl-3,4-dihydroxytetrahydrofuran-2-yl)methoxy)malonic acid] | 6 nM |
| C#C[C@@]1(O)[C@@H](COC(Cc2ccn[nH]2)(C(=O)O)C(=O)O)O[C@@H](n2cnc3c(N)nc(Cl)nc32)[C@@H]1O [Example 158, 2-((1H-pyrazol-5-yl)methyl)-2-(((2R,3S,4R,5R)-5-(6-amino-2-chloro-9H-purin-9-yl)-3-ethynyl-3,4-dihydroxytetrahydrofuran-2-yl)methoxy)malonic acid] | 8 nM |
| C#C[C@@]1(O)[C@@H](COC(Cc2ccccc2)(C(=O)O)C(=O)O)O[C@@H](n2cnc3c(N4CC(C)(O)C4)nc(Cl)nc32)[C@@H]1O [Example 47, 2-benzyl-2-(((2R,3S,4R,5R)-5-(2-chloro-6-(3-hydroxy-3-methylazetidin-1-yl)-9H-purin-9-yl)-3-ethynyl-3,4-dihydroxytetrahydrofuran-2-yl)methoxy)malonic acid] | 2 nM |
| C#C[C@@]1(O)[C@@H](COC(Cc2ccccc2)(C(=O)O)C(=O)O)O[C@@H](n2cnc3c(N4CCOCC4)nc(Cl)nc32)[C@@H]1O [Example 79, 2-benzyl-2-(((2R,3S,4R,5R)-5-(2-chloro-6-morpholino-9H-purin-9-yl)-3-ethynyl-3,4-dihydroxytetrahydrofuran-2-yl)methoxy)malonic acid] | 4 nM |
| C#C[C@@]1(O)[C@@H](COC(Cc2cc(C)on2)(C(=O)O)C(=O)O)O[C@@H](n2cnc3c(NC(C)C)nc(Cl)nc32)[C@@H]1O [Example 110, 2-(((2R,3S,4R,5R)-5-(2-chloro-6-(isopropylamino)-9H-purin-9-yl)-3-ethynyl-3,4-dihydroxytetrahydrofuran-2-yl)methoxy)-2-((5-methylisoxazol-3-yl)methyl)malonic acid] | 3 nM |
| C#C[C@@]1(O)[C@@H](COC(Cc2ccc(N3CCCN(C)C3=O)cc2)(C(=O)O)C(=O)O)O[C@@H](n2cnc3c(NCC4CC4)nc(Cl)nc32)[C@@H]1O [Example 150, 2-(((2R,3S,4R,5R)-5-(2-chloro-6-((cyclopropylmethyl)amino)-9H-purin-9-yl)-3-ethynyl-3,4-dihydroxytetrahydrofuran-2-yl)methoxy)-2-(4-(3-methyl-2-oxotetrahydropyrimidin-1 (2H)-yl)benzyl)malonic acid] | 0.16 nM |
| C=C[C@@]1(O)[C@@H](COC(Cc2ccccc2)(C(=O)O)C(=O)O)O[C@@H](n2cnc3c(N)nc(Cl)nc32)[C@@H]1O [Example 57, 2-(((2R,3S,4R,5R)-5-(6-amino-2-chloro-9H-purin-9-yl)-3,4-dihydroxy-3-vinyltetrahydrofuran-2-yl)methoxy)-2-benzylmalonic acid] | 103 nM |
| C#C[C@@]1(O)[C@@H](COC(Cc2ccccc2)(C(=O)O)C(=O)O)O[C@@H](n2cnc3c(NC(C)C)cc(Cl)nc32)[C@@H]1O [Example 30, 2-benzyl-2-(((2R,3S,4R,5R)-5-(5-chloro-7-(isopropylamino)-3H-imidazo[4,5-b]pyridin-3-yl)-3-ethynyl-3,4-dihydroxytetrahydrofuran-2-yl)methoxy)malonic acid] | 5 nM |
| C#C[C@@]1(O)[C@@H](COC(Cc2ccc(-c3cccn(CCC)c3=O)cc2)(C(=O)O)C(=O)O)O[C@@H](n2cnc3c(NC)nc(Cl)nc32)[C@@H]1O [Example 160, 2-(((2R,3S,4R,5R)-5-(2-chloro-6-(methylamino)-9H-purin-9-yl)-3-ethynyl-3,4-dihydroxytetrahydrofuran-2-yl)methoxy)-2-(4-(2-oxo-1-propy-1,2-dihydropyridin-3-yl)benzyl)malonic acid] | 0.31 nM |
| C#C[C@@]1(O)[C@@H](COC(CC=C)(C(=O)O)C(=O)O)O[C@@H](n2cnc3c(N)nc(Cl)nc32)[C@@H]1O [Example 15, 2-allyl-2-(((2R,3S,4R,5R)-5-(6-amino-2-chloro-9H-purin-9-yl)-3-ethynyl-3,4-dihydroxytetrahydrofuran-2-yl)methoxy)malonic acid] | 20 nM |
| C#C[C@@]1(O)[C@@H](CO[C@@](Cc2ccccc2)(C(=O)O)c2cscn2)O[C@@H](n2cnc3c(NCC4CC4)nc(Cl)nc32)[C@@H]1O (single isomer, unassigned) [Example 173] | 112 nM |
| C#C[C@@]1(O)[C@@H](COC(Cc2ccccc2)(C(=O)O)C(=O)NC)O[C@@H](n2cnc3c(NCc4ccccc4)nc(Cl)nc32)[C@@H]1O (stereo partly drawn) [Example 107, 2-benzyl-2-(((2R,3S,4R,5R)-5-(6-(benzylamino)-2-chloro-9H-purin-9-yl)-3-ethynyl-3,4-dihydroxytetrahydrofuran-2-yl)methoxy)-3-(methylamino)-3-oxopropanoic acid] | 506 nM |
| C#C[C@@]1(O)[C@@H](COC(Cc2ccc(N3CCCC3)cc2)(C(=O)O)C(=O)O)O[C@@H](n2cnc3c(N)nc(Cl)nc32)[C@@H]1O [Example 144, 2-(((2R,3S,4R,5R)-5-(6-amino-2-chloro-9H-purin-9-yl)-3-ethynyl-3,4-dihydroxytetrahydrofuran-2-yl)methoxy)-2-(4-(pyrrolidin-1-yl)benzyl)malonic acid] | 1 nM |
| C#C[C@@]1(O)[C@@H](COC(Cc2ccc(N3CCCN(CCO)C3=O)cc2)(C(=O)O)C(=O)O)O[C@@H](n2cnc3c(NC)nc(Cl)nc32)[C@@H]1O [Example 137, 2-(((2R,3S,4R,5R)-5-(2-chloro-6-(methylamino)-9H-purin-9-yl)-3-ethynyl-3,4-dihydroxytetrahydrofuran-2-yl)methoxy)-2-(4-(3-(2-hydroxyethyl)-2-oxotetrahydropyrimidin-1 (2H)-yl)benzyl)malonic acid] | 0.31 nM |
| C#C[C@@]1(O)[C@@H](COC(Cc2ccc(-c3cccn(CC)c3=O)cc2)(C(=O)O)C(=O)O)O[C@@H](n2cnc3c(NC)nc(Cl)nc32)[C@@H]1O [Example 130, 2-(((2R,3S,4R,5R)-5-(2-chloro-6-(methylamino)-9H-purin-9-yl)-3-ethynyl-3,4-dihydroxytetrahydrofuran-2-yl)methoxy)-2-(4-(1-ethyl-2-oxo-1,2-dihydropyridin-3-yl)benzyl)malonic acid] | 0.36 nM |
| C#C[C@@]1(O)[C@@H](COC(Cc2ccc(N3CCCN(C)C3=O)cc2)(C(=O)O)C(=O)O)O[C@@H](n2cnc3c(N)nc(Cl)nc32)[C@@H]1O [Example 149, 2-(((2R,3S,4R,5R)-5-(6-amino-2-chloro-9H-purin-9-yl)-3-ethynyl-3,4-dihydroxytetrahydrofuran-2-yl)methoxy)-2-(4-(3-methyl-2-oxotetrahydropyrimidin-1 (2H)-yl)benzyl)malonic acid] | 0.11 nM |
| C#C[C@@]1(O)[C@@H](COC(Cc2ccccc2)(C(=O)O)C(=O)O)O[C@@H](n2cnc3c(NC[C@H](C)O)nc(Cl)nc32)[C@@H]1O [Example 36, 2-benzyl-2-(((2R,3S,4R,5R)-5-(2-chloro-6-(((S)-2-hydroxypropyl)amino)-9H-purin-9-yl)-3-ethynyl-3,4-dihydroxytetrahydrofuran-2-yl)methoxy)malonic acid] | 4 nM |
| C#C[C@@]1(O)[C@@H](COC(Cc2ccc(-c3cccnc3N)cc2)(C(=O)O)C(=O)O)O[C@@H](n2cnc3c(N)nc(Cl)nc32)[C@@H]1O [Example 197, 2-(((2R,3S,4R, 5R)-5-(6-amino-2-chloro-9H-purin-9-yl)-3-ethynyl-3,4-dihydroxytetrahydrofuran-2-yl)methoxy)-2-(4-(2-aminopyridin-3-yl)benzyl)malonic acid] | 0.73 nM |
| C#C[C@@]1(O)[C@@H](COC(Cc2ccc(N3CCCNC3=O)cc2)(C(=O)O)C(=O)O)O[C@@H](n2cnc3c(NC)nc(Cl)nc32)[C@@H]1O [Example 141, 2-(((2R,3S,4R,5R)-5-(2-chloro-6-(methylamino)-9H-purin-9-yl)-3-ethynyl-3,4-dihydroxytetrahydrofuran-2-yl)methoxy)-2-(4-(2-oxotetrahydropyrimidin-1 (2H)-yl)benzyl)malonic acid] | 0.23 nM |
| C#C[C@@]1(O)[C@@H](COC(Cc2ccccc2)(C(=O)O)C(=O)O)O[C@@H](n2cnc3c(N4CC[C@@H](O)C4)nc(Cl)nc32)[C@@H]1O [Example 100, 2-benzyl-2-(((2R,3S,4R,5R)-5-(2-chloro-6-((R)-3-hydroxypyrrolidin-1-yl)-9H-purin-9-yl)-3-ethynyl-3,4-dihydroxytetrahydrofuran-2-yl)methoxy)malonic acid] | 2 nM |
| C#C[C@@]1(O)[C@@H](CO[C@](Cc2ccccc2)(C(=O)O)c2cscn2)O[C@@H](n2cnc3c(NCC4CC4)nc(Cl)nc32)[C@@H]1O (single isomer, unassigned) [Example 172] | 6 nM |
